This is an account of results in US20190233442A1, “SELECTIVE ESTROGEN RECEPTOR DOWN-REGULATORS (SERDS)” (Xavier University of Louisiana, priority 2016, published 2019).

Some results are limits rather than exact numbers.

One data set has as its system BT474. Kind of data set: Cytotoxicity in breast cancer cell lines (BT474). Type of data set: cell-based. To be noted: BT474 cells.
In a further data set the test system is MCF-7/TamR. Kind of data set: Cytotoxicity in breast cancer cell lines (MCF-7/TamR). Type of data set: cell-based. The conditions noted are these: MCF-7/TamR cells.
For a further data set, the system named is MCF-7. The data set is described as follows: Cytotoxicity in breast cancer cell lines (MCF-7). Format: cell-based. To be noted: MCF-7 cells.
For the next data set, the system named is T47D/PKCα. Kind of data set: Cytotoxicity in breast cancer cell lines (T47D/PKCα). Format: cell-based. The conditions noted are these: T47D/PKCα cells.
For data set [1] the following is noted: cited from earlier work.
In data set [2] the target is T1, estrogen receptor α (ERα) (Homo sapiens, UniProt P03372).
T1 construct: endogenous in cells; host or cells: MCF-7
T1 sequence (P03372 1-595): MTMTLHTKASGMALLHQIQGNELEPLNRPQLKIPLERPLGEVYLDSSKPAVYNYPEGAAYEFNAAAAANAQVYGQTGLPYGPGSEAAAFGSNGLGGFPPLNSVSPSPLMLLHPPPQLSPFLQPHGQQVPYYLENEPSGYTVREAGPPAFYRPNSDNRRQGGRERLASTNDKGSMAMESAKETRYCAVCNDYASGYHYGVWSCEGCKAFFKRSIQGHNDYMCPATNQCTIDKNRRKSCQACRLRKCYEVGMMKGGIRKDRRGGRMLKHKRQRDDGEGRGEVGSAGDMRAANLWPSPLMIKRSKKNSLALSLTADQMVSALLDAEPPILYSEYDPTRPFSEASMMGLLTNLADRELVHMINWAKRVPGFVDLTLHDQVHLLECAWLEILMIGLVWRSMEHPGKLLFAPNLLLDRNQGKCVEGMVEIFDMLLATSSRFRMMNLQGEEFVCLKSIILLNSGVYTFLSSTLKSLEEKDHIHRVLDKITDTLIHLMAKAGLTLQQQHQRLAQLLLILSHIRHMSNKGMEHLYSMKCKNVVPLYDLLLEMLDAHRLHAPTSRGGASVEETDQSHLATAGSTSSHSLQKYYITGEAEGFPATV
The data set is described as follows: Western blot of ER protein expression (down-regulation). Format: cell-based. On the technique in general: A western blot detects proteins with antibodies after separation by electrophoresis.

Data set [3] deals with T1, estrogen receptor α (ERα). Kind of data set: Binding to estrogen receptor α. To be noted: FIG. 15.

For the molecule 4-Hydroxytamoxifen [reference compound], the IC50 (commonly the midpoint of a concentration-inhibition curve) in the data set on BT474 amounted to 1430 nM; with MCF-7/TamR, 21100 nM; in the data set on MCF-7 it was 3.3 nM; with T47D/PKCα it was 540 nM.

Take `C[C@]12CC[C@@H]3c4ccc(O)cc4C[C@@H](CCCCCCCCC[S+]([O-])CCCC(F)(F)C(F)(F)F)[C@H]3[C@@H]1CC[C@@H]2O` (some centres unmarked) [Fulvestrant]: the peak blood concentration in data set [1] (higher dose of 500 mg, FINDER1 and FINDER2 clinical trials) is listed as < 25 ng/mL. Also, in data set [1] (higher dose of 500 mg), the “time to reach steady state concentration in patient plasma” value is 1 month. Further, the “bioavailability if administered orally” value in data set [1] (oral) is reported as “very poor bioavailability”. In data set [1] (standard intramuscular (i.m.) injection), the “time to reach steady state serum concentration” value was 3-4 months. Also, the ER protein expression result in data set [2] (FIG. 14, cell line not stated) is “dramatically downregulated”.

Consider `CCC(=C(c1ccc(/C=C/C(=O)O)cc1)c1ccc(B(O)O)cc1)c1ccccc1` [SERD 4], for which the “binding to estrogen receptor α (ERα)” value in data set [3] is reported as “high affinity”. For the same molecule, the half-inhibitory concentration (IC50) with MCF-7/TamR (Homo sapiens, MCF7) is 1200 nM; in the data set with MCF-7 (Homo sapiens, MCF7), 1800 nM. Moreover, the ER protein expression result in data set [2] (MCF-7 cells, FIG. 13) is on record as “dramatically downregulated”.

Take `CC/C(=C(\c1ccc(/C=C/C(=O)O)cc1)c1ccc(B2OC(C)(C)C(C)(C)O2)cc1)c1ccccc1` [SERD 6]: the IC50 in the data set on BT474 (Homo sapiens, BT-474) came out at 80500 nM; in the data set with MCF-7/TamR (Homo sapiens, MCF7) it was 4530 nM; in the data set with MCF-7 (Homo sapiens, MCF7), 7730 nM; in the data set on T47D/PKCα (Homo sapiens), 6540 nM.

`C[C@]12CC[C@@H]3c4ccc(B(O)O)cc4C[C@@H](CCCCCCCCC[S+]([O-])CCCC(F)(F)C(F)(F)F)[C@H]3[C@@H]1CC[C@@H]2O` (some centres unmarked) [SERD 9]: in data set [3], the “binding to estrogen receptor α (ERα)” value was “high affinity”. For the same molecule, the IC50 with BT474 (Homo sapiens, BT-474) was 390 nM; in the data set with MCF-7/TamR (Homo sapiens, MCF7) it was 44 nM; in the data set on MCF-7 (Homo sapiens, MCF7), 3.2 nM; in the data set on T47D/PKCα (Homo sapiens) it was 370 nM. Besides, the ER protein expression entry in data set [2] (FIG. 14, cell line not stated) is given as “dramatically downregulated”.
